From patent publication US20170071235A1 (priority 2014, published 2017)

Columns and labels:
[1] = test system: TNF-α secretion produced by PMA-differentiated macrophages; format: cell-based, human
[2] = test system: IL-1β secretion produced by PMA-differentiated macrophages; format: cell-based, human
[3] = test system: THP-1 monocytes
[4] = thiol group; cited from earlier work

Row | Structure (SMILES) | TNF-α secretion [1] | IL-1β response [2] | release of IL-1β [2] | effect on proliferation of THP-1 monocytes [3] | pKa [4]
1 | CC1=C[C@H]2O[C@@H]3[C@H](O)C[C@](C)([C@@]2(CO)[C@H](O)C1=O)[C@]31CO1 [DON, deoxynivalenol] | increase in TNF-α | did not show an IL-1β response | increased the release of IL-1β | decreased the proliferation | –
2 | C=C1[C@@H]2O[C@@H]3C=C(C)C(=O)[C@@H](O)[C@]3(CO)[C@@]1(C)C[C@H]2O [deepoxy-DON] | – | – | did not | did not | –
3 | OCCS [mercaptoethanol, 2-mercaptoethanol] | – | – | – | – | ~9.6
